Results on eleven compounds are retold here after ChEMBL document CHEMBL1201862, “PubChem BioAssay data set” (2004).

Some test systems named below: Malme-3M; NCI/ADR-RES; MDA-MB-435; A549; NCI-H226; HL-60; HT-29; KM12; SF-295; SW-620; PC-3; NCI-H23; UACC-62; SK-MEL-28; DU-145; OVCAR-5; NCI-H522; SK-MEL-5; UO-31; SNB-75.
Assay in all cases: NCI anticancer screen, dose series, 48 h

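Five compound concentrations were applied to cells in 96-well plates for 48 hours; endpoints were derived by simple linear interpolation of the resulting dose-response curve. GI50: concentration for 50% inhibition of growth.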 Active and inactive are the calls of the source. Cut-off read from the data, not from the text of the source: active = GI50 up to about 1.1 µM and inactive = higher.

`O=C(O)CCC(=O)c1ccc2c(c1)C(C(=O)O)CC2` (stereo not given): the GI50 is > 100 µM (inactive) in the assay on Malme-3M; > 100 µM (inactive) in the assay with NCI/ADR-RES; > 100 µM (inactive) in the assay on MDA-MB-435; 0.0902 µM (active) in the assay with A549; > 100 µM (inactive) in the assay with NCI-H226; > 100 µM (inactive) in the assay with HL-60. The GI50 in the assay on HT-29, in the assay with KM12, with SF-295, with SW-620, in the assay with PC-3 and in the assay with NCI-H23 was > 100 µM (inactive) throughout. Besides, the GI50 with UACC-62, in the assay on SK-MEL-28, with DU-145, in the assay with OVCAR-5, in the assay on NCI-H522 and in the assay with SK-MEL-5 was > 100 µM (inactive) in each case. In the assay with UO-31, the GI50 is > 100 µM (inactive).
As for `N=C1OC(CN2CCN(c3ccccc3)CC2)CN1C(=O)Nc1ccccc1` (stereo not given), the GI50 in the assay on Malme-3M was > 100 µM (inactive); with NCI/ADR-RES it was > 100 µM (inactive); in the assay on MDA-MB-435 it was > 100 µM (inactive); with A549, > 100 µM (inactive); in the assay with NCI-H226 it was > 100 µM (inactive); in the assay with HL-60, 53.5 µM (inactive). For the same compound, the GI50 with HT-29, with KM12, in the assay on SF-295, in the assay with SW-620, with PC-3 and in the assay on NCI-H23 was > 100 µM (inactive) throughout. Besides, the GI50 in the assay on UACC-62 was > 100 µM (inactive); in the assay with SK-MEL-28, > 100 µM (inactive); in the assay on DU-145, > 100 µM (inactive); in the assay on OVCAR-5, > 100 µM (inactive); in the assay on NCI-H522, 39.7 µM (inactive); in the assay with SK-MEL-5, > 100 µM (inactive). For the same compound, in the assay with UO-31, the GI50 was > 100 µM (inactive).
Turning to `Nc1nc(N)c2c(n1)CCC(S(=O)(=O)c1ccc3ccccc3c1)C2` (stereo not given), the GI50 with Malme-3M is 2.24 µM (inactive); in the assay on NCI/ADR-RES, 43.8 µM (inactive); in the assay on MDA-MB-435, 0.714 µM (active); in the assay on A549, 0.54 µM (active); with NCI-H226 it was 39.3 µM (inactive); in the assay on HL-60 it was 13.5 µM (inactive). The GI50 with HT-29 was 1.26 µM (inactive); with KM12, 6.08 µM (inactive); in the assay on SF-295 it was 1.66 µM (inactive); in the assay on SW-620, 59.3 µM (inactive); with PC-3 it was 17.6 µM (inactive); with NCI-H23, 2.53 µM (inactive). Besides, the GI50 with SK-MEL-28 is 27.7 µM (inactive); with DU-145 it was 9.59 µM (inactive); with OVCAR-5 it was 87.7 µM (inactive); in the assay with SK-MEL-5, 2.55 µM (inactive); with UO-31, 5.45 µM (inactive).
Regarding `C[C@]12CC[C@@H]3c4cc(Br)c(O)c(Br)c4CC[C@H]3[C@@H]1CCC2=O`, the GI50 was 85.9 µM (inactive) in the assay on Malme-3M; 12.5 µM (inactive) in the assay on NCI/ADR-RES; 16.1 µM (inactive) with SNB-75; 26.2 µM (inactive) in the assay with MDA-MB-435; 17.3 µM (inactive) in the assay on A549; 7.87 µM (inactive) in the assay with NCI-H226. The GI50 in the assay on HL-60 was 26.2 µM (inactive); with HT-29 it was 46.1 µM (inactive); with KM12, 63.7 µM (inactive); in the assay with SF-295 it was 16.4 µM (inactive); in the assay with SW-620, 32.9 µM (inactive); with PC-3, 30.8 µM (inactive). Also, the GI50 is 13.8 µM (inactive) in the assay with NCI-H23; 16.3 µM (inactive) in the assay with UACC-62; 31 µM (inactive) in the assay with SK-MEL-28; 39.6 µM (inactive) in the assay with DU-145; 21.8 µM (inactive) with OVCAR-5; 11.9 µM (inactive) in the assay on UO-31.
For the compound `C=C[C@@]1(C)CC(=O)[C@]2(O)[C@@]3(C)[C@@H](OC(C)=O)CCC(C)(C)[C@@H]3[C@H](O)[C@H](OC(C)=O)[C@@]2(C)O1`, the GI50 is > 100 µM (inactive) in the assay with NCI/ADR-RES; 27.6 µM (inactive) with SNB-75; > 100 µM (inactive) in the assay with MDA-MB-435; > 100 µM (inactive) with A549; > 100 µM (inactive) in the assay with NCI-H226; > 100 µM (inactive) with HT-29. For the same compound, the GI50 in the assay with KM12 was 13.4 µM (inactive); in the assay with SF-295 it was > 100 µM (inactive); with SW-620, > 100 µM (inactive); in the assay with PC-3, > 100 µM (inactive); in the assay on NCI-H23 it was > 100 µM (inactive); in the assay with UACC-62 it was > 100 µM (inactive). For the same compound, the GI50 in the assay on SK-MEL-28, in the assay with DU-145, in the assay with OVCAR-5 and with UO-31 was > 100 µM (inactive) each time.
For the compound `O=C1c2ccccc2-c2ccc(/N=N/c3c(O)ccc4ccccc34)cc21`, the GI50 in the assay on Malme-3M is 19.7 µM (inactive); in the assay with NCI/ADR-RES, > 100 µM (inactive); with SNB-75, > 100 µM (inactive); in the assay on MDA-MB-435 it was 33.6 µM (inactive); with A549 it was > 100 µM (inactive); in the assay with NCI-H226, > 100 µM (inactive). In addition, the GI50 in the assay on HT-29, in the assay with KM12, in the assay with SF-295, in the assay on SW-620, in the assay on PC-3 and with NCI-H23 was > 100 µM (inactive) each time. Also, the GI50 in the assay with UACC-62, in the assay with SK-MEL-28, with DU-145, in the assay with OVCAR-5, in the assay with NCI-H522 and in the assay on SK-MEL-5 was > 100 µM (inactive) each time. Besides, in the assay with UO-31, the GI50 was > 100 µM (inactive).
Consider `O=C(NNC(=S)Nc1ccc(Br)cc1)c1cc(-c2ccccc2)nc2ccccc12`, for which the GI50 in the assay with Malme-3M was 17.3 µM (inactive); with NCI/ADR-RES, 18.6 µM (inactive); with SNB-75 it was 29.2 µM (inactive); in the assay with MDA-MB-435, 17.1 µM (inactive); in the assay with A549, 21 µM (inactive); with NCI-H226 it was 24.3 µM (inactive). Besides, the GI50 was 32.1 µM (inactive) in the assay on HT-29; 29.9 µM (inactive) with KM12; 19.2 µM (inactive) in the assay with SF-295; 21.2 µM (inactive) in the assay on SW-620; 20.1 µM (inactive) in the assay on PC-3; 23.6 µM (inactive) in the assay on NCI-H23. Besides, the GI50 with UACC-62 is 20 µM (inactive); in the assay on SK-MEL-28, 21.1 µM (inactive); in the assay with DU-145 it was 19.9 µM (inactive); with OVCAR-5, 24.9 µM (inactive); in the assay with NCI-H522, 22.2 µM (inactive); with SK-MEL-5, 15.8 µM (inactive). Besides, in the assay with UO-31, the GI50 was 17.1 µM (inactive).
For `Cc1cn(CCCCCOC(=O)NC(CCCNC(=N)N)C(=O)O)c(=O)[nH]c1=O` (stereo not given), the GI50 with NCI/ADR-RES is 23.1 µM (inactive); with SNB-75 it was 31.6 µM (inactive); with MDA-MB-435, 6.32 µM (inactive); in the assay on A549, 49.2 µM (inactive); with NCI-H226, 30.3 µM (inactive); in the assay on HL-60, 17 µM (inactive). The GI50 in the assay with HT-29 was 24.2 µM (inactive); with KM12, 19 µM (inactive); in the assay on SF-295, 28.2 µM (inactive); in the assay on SW-620 it was 38.7 µM (inactive); in the assay on PC-3, 40.8 µM (inactive); in the assay with NCI-H23 it was 40.2 µM (inactive). Besides, the GI50 is 26.7 µM (inactive) in the assay with UACC-62; 76.4 µM (inactive) with SK-MEL-28; 37.5 µM (inactive) in the assay with DU-145; > 100 µM (inactive) with OVCAR-5; > 100 µM (inactive) in the assay on UO-31.
As to `O=C(Nc1ccccc1C(=O)NCc1ccccc1)/C(=C/c1ccccc1O)NC(=O)c1ccccc1`, the GI50 in the assay on NCI/ADR-RES is 88.5 µM (inactive); in the assay with SNB-75, 19.1 µM (inactive); with MDA-MB-435, 50.7 µM (inactive); in the assay on A549, > 100 µM (inactive); in the assay on NCI-H226 it was > 100 µM (inactive); in the assay with HL-60 it was 55.5 µM (inactive). Also, the GI50 in the assay on HT-29 is > 100 µM (inactive); in the assay on KM12, 4.67 µM (inactive); in the assay on SF-295, 49.9 µM (inactive); in the assay with SW-620, > 100 µM (inactive); in the assay with PC-3 it was > 100 µM (inactive); with NCI-H23, > 100 µM (inactive). Also, the GI50 with UACC-62 was 33.7 µM (inactive); with SK-MEL-28, > 100 µM (inactive); in the assay with DU-145 it was > 100 µM (inactive); in the assay on OVCAR-5 it was > 100 µM (inactive); in the assay on NCI-H522, > 100 µM (inactive); in the assay with SK-MEL-5 it was > 100 µM (inactive). The GI50 in the assay with UO-31 was 65.6 µM (inactive).
For the compound `O=C(O)c1cccc(/[As]=[As]\c2cccc(C(=O)O)c2)c1` (stereo not given), the GI50 in the assay on Malme-3M is 21.4 µM (inactive); with NCI/ADR-RES, 75.7 µM (inactive); in the assay with SNB-75, 21.5 µM (inactive); with MDA-MB-435, 52.1 µM (inactive); in the assay on A549, > 100 µM (inactive); in the assay with NCI-H226, 84.9 µM (inactive). The GI50 in the assay on HT-29 was 49.3 µM (inactive); in the assay with KM12, > 100 µM (inactive); in the assay on SF-295 it was > 100 µM (inactive); in the assay with SW-620, 32.7 µM (inactive); with PC-3, 16.9 µM (inactive); with NCI-H23, 31 µM (inactive). For the same compound, the GI50 in the assay with UACC-62 is 33.3 µM (inactive); with SK-MEL-28 it was > 100 µM (inactive); in the assay on DU-145, 86.5 µM (inactive); in the assay on OVCAR-5 it was 24.5 µM (inactive); in the assay with NCI-H522, 17.9 µM (inactive); with SK-MEL-5 it was 32.7 µM (inactive). Further, in the assay with UO-31, the GI50 was 38.2 µM (inactive).
For the compound `COc1ccc(C)c2c1N[C@](C)([C@]1(C)Nc3c(OC)ccc(C)c3C1=O)C2=O`, the GI50 in the assay on Malme-3M was > 100 µM (inactive); in the assay on NCI/ADR-RES it was > 100 µM (inactive); in the assay on MDA-MB-435, 44.7 µM (inactive); with A549 it was > 100 µM (inactive); with NCI-H226, > 100 µM (inactive); in the assay with HT-29 it was > 100 µM (inactive). The GI50 in the assay on KM12 was 76.9 µM (inactive); in the assay with SF-295 it was 41.4 µM (inactive); in the assay on SW-620, > 100 µM (inactive); in the assay with PC-3, > 100 µM (inactive); in the assay with NCI-H23, > 100 µM (inactive); in the assay on UACC-62, > 100 µM (inactive). Further, the GI50 with SK-MEL-28, in the assay with DU-145, in the assay on OVCAR-5, with NCI-H522, in the assay on SK-MEL-5 and in the assay on UO-31 was > 100 µM (inactive) in each case.
